Test results: patent publication US11759433B2, “Compositions and methods for regulating the endocannabinoid system” (Sytheon Ltd, priority 2019, dated 2023)
Where two headings read alike, the source gives them in different places.

Assays:
[1] = molecular target: T1, Fatty Acid Amide Hydrolase (FAAH) (Homo sapiens, UniProt O00519); test: FAAH inhibitor screening assay (Cayman kit); type: biochemical
T1 construct: purchased Cayman 10005196
T1 sequence (O00519 1-579): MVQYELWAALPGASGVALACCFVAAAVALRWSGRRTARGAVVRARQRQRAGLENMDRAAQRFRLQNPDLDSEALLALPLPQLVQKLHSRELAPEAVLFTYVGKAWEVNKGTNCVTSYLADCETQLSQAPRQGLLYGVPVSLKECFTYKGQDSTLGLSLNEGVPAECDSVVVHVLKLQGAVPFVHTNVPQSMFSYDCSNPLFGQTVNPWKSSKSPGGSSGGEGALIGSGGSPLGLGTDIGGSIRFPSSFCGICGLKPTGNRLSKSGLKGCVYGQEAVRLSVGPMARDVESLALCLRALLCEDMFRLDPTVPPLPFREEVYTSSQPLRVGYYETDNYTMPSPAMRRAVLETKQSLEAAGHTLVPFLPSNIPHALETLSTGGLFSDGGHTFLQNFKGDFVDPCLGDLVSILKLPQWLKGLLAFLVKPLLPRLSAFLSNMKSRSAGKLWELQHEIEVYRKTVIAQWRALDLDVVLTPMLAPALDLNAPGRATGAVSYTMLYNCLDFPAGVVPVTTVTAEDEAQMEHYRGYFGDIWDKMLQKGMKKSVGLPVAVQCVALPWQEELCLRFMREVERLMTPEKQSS
Description: A 0.01 gram of sample of each of the indicated Test Samples identified in Table 3 was dissolved in 1 mL DMSO to make stock solution. […] The analysis was done following FAAH inhibitor screening assay kit (Cayman cat #10005196) protocol.

[2] = molecular target: T2, Monoacyl Glycerol Lipase (MAGL) (Homo sapiens, UniProt Q99685); test: Monoacyl Glycerol Lipase (MAGL) inhibitory activity; type: biochemical
T2 construct: purchased Cayman 10007812
T2 sequence (Q99685 1-303): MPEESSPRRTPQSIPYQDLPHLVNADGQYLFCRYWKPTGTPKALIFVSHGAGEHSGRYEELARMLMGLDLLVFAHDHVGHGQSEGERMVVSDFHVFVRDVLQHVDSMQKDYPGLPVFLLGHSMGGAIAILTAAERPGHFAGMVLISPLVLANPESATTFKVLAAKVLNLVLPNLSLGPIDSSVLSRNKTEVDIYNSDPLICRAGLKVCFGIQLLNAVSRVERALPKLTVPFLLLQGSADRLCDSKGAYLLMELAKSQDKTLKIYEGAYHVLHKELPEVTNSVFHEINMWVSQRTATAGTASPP
Description: A 0.1 gram of sample of each of the indicated Test Samples identified in Table 3 was dissolved in 1 mL DMSO to make stock solution. […] Final concentration in well: 10 μL of sample, 5.6 mU MAGL (Cayman cat. #10007812), and 23.6 μM 2Arachidonoyl Glycerol (Cayman cat. #62160). This study was done by following the protocol described by J L Blankman et al. (Blankmann et., A comprehensive profile of brain enzymes that hydrolyze the endocannabinoid 2-Arachidonyl glycerol, Chem & Biol, 14(12); 1347-1356, 2007).

[3] = molecular target: T3, Fatty Acid Binding Protein 5 (FABP5) (Homo sapiens, UniProt Q01469); test: Fatty Acid Binding Protein 5 inhibitory activity (FABP-5 ELISA kit)
T3 construct: purchased Raybiotech 268-10276-1
T3 sequence (Q01469 whole entry): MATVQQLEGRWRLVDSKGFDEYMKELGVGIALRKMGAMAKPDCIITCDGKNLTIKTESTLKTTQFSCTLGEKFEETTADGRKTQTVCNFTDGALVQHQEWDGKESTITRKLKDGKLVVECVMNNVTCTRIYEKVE
Description: 0.1 gram of sample of each of the indicated Test Samples identified in Table 3 was dissolved in 1 mL DMSO and diluted with Diluent C from the FABP-5 ELISA Kit (Raybiotech #ELH-FABP5) to a make stock solution of 800 μg/ml. […] 50 μl of sample and 50 μl of 200 ng/ml of FABP-5 (Raybiotech #268-10276-1) was added per well for the analysis. The analysis was done following protocol of the aforementioned kit.

Cortisol = Cortisol output in RHE-conditioned medium; type: cell-based, Human; conditions: for Cortisol (% Control): 2 mg/cm^2 on RHE; for Cortisol (% Control) / Cortisol std MTT (% Control): 48 h; for Cortisol std MTT (% Control): standardised to MTT tissue viability
Description: (§1) A series of tests were conducted to assess the impact of the compositions according to the present teaching on the stress biomarkers cortisol and interleukin-8 8). The compounds and compositions to be evaluated were stored at room temperature prior to use and, for use, were solubilized in caprylic acid/caprylic triglycerides. The tests were conducted using reconstituted human epithelium-conditioned medium. Reconstituted Human Epidermis tissues were obtained from Zen-Bio (Research Triangle, NC; order #51500) and were stored o/n at 4° C. The following day the tissues were transferred to 6 well plates and allowed to equilibrate for 4 h in the medium provided by the manufacturer (ZenSkin RHE Assay Medium, lot #031620). Thereafter the medium was change with fresh medium and the Test Materials, as identified in Table 4, applied to the tissue samples in an amount of 2 mg/cm^2 with a positive displacement pipette and spread evenly on top of the tissues. The solvent was used as the negative control.
Cortisol—After 48 h of incubation, the cortisol output in the cell culture conditioned medium was measured with the Cortisol Parameter Assay Kit from RnD (Minneapolis, MN cat. #KGE008B), while tissue viability was assessed by the MTT technique, using the manufacturer's protocol and reagents.
(§2) In both studies the statistical significance was assessed with two-tail Student test. Deviations of ≥15% as compared to water control with p values below 0.05 were considered statistically significant.

IL-8 = IL-8 output in RHE-conditioned medium (sandwich ELISA); type: cell-based, Human; conditions: for IL-8 (% Control): 2 mg/cm^2 on RHE; for Effect on level of IL-8, in words: tissue culture conditioned medium
Description: as §1
IL-8—Similarly, interleukin-8 (IL-8) output in the cell culture conditioned medium was measured by sandwich ELISA using antibody pair from Invitrogen (ThermoFisher, kit cat. #CHC1303) and antibody pair from BioLegend (cat. #501101 and #501201), respectively. All colorimetric measurements were performed using Molecular Devices microplate reader MAX190 and SoftMax3.1.2PRO software.
as §2

[4] = read-out: FAAH IC50 (converted)
[5] = read-out: MAGL IC50 (converted)

CCCCC/C=C\C/C=C\CCCCCCCC(=O)OCC [Ethyl Linoleate (Synovea ® EL), Ethyl linoleate]
IC50 [1, 4]: 9.81 µM
IC50 [2, 5]: 7710 µM
IC50 [3]: 1490 µM

CCCCC/C=C\C/C=C\CCCCCCCC(=O)OCC [Ethyl Linoleate 98, Ethyl linoleate]
IC50 [1, 4]: 3.6 µM

C=C[C@@](C)(/C=C/c1ccc(O)cc1)CCC=C(C)C [Bakuchiol]
IC50 [1, 4]: 6.71 µM
IC50 [2, 5]: 183 µM
IC50 [3]: 449 µM
Cortisol (% Control) (Cortisol; 0.1%): 51 % Control
Cortisol std MTT (% Control) (Cortisol; 0.1%): 56 % Control
Cortisol (% Control) (Cortisol; 0.25%): 64 % Control
Cortisol std MTT (% Control) (Cortisol; 0.25%): 87 % Control
Cortisol (% Control) (Cortisol; 0.5%): 54 % Control
Cortisol std MTT (% Control) (Cortisol; 0.5%): 79 % Control
IL-8 (% Control) (IL-8; 0.1%): 92 % Control
IL-8 (% Control) (IL-8; 0.25%): 92 % Control
IL-8 (% Control) (IL-8; 0.5%): 86 % Control
Effect on level of IL-8, in words (IL-8): marginal effect in reducing

C=C(C)[C@@H]1CCC(C)=C[C@H]1c1c(O)cc(CCCCC)cc1O [Cannabidiol 99, Cannabidiol]
IC50 ([1]; FAAH IC50): 99.5 µM
IC50 [2]: 13100 µM
Cortisol (% Control) (Cortisol; 0.1%): 72 % Control
Cortisol std MTT (% Control) (Cortisol; 0.1%): 82 % Control
Cortisol (% Control) (Cortisol; 0.5%): 84 % Control
Cortisol std MTT (% Control) (Cortisol; 0.5%): 95 % Control
Cortisol (% Control) (Cortisol; 1%): 134 % Control
Cortisol std MTT (% Control) (Cortisol; 1%): 174 % Control
Effect on level of cortisol, in words (Cortisol; higher levels): increased the cortisol level
Effect on level of cortisol, in words (Cortisol; low levels): modest decrease in cortisol
IL-8 (% Control) (IL-8; 0.1%): 103 % Control
IL-8 (% Control) (IL-8; 0.5%): 107 % Control
IL-8 (% Control) (IL-8; 1%): 108 % Control
Effect on level of IL-8, in words (IL-8): no effect or marginally increased
